Results reported in ChEMBL document CHEMBL5329166, “Discovery of imeglimin-inspired novel 1,3,5-triazine derivatives as antidiabetic agents in streptozotocin-induced diabetes in Wistar rats via inhibition of DPP-4” (RSC Med Chem, 2023).
Calls of active or inactive are those of the source. The rule behind the calls is not given here.

Experiments:
[1] = system: Rattus norvegicus; assay: Antioxidant activity in IG dosed high fat diet/STZ induced diabetic Wistar rat model assessed as reversal of GSH reduction in liver pretreated with STZ for 21 days followed by compound treatment once daily for 21 days by spectrophotometric analysis; assay type: functional, organism-based; conditions: dose 3-30 mg/kg, time 21.0 day
[2] = system: Rattus norvegicus; assay: Antioxidant activity in high fat diet/STZ induced diabetic Wistar rat model assessed as reduction in lymphocyte level in renal stroma at 3 to 30 mg/kg, IG pretreated with STZ for 21 days followed by compound treatment once daily for 21 days by H and E staining based microscopic analysis; assay type: functional, organism-based; conditions: dose 3-30 mg/kg, time 21.0 day
[3] = system: Rattus norvegicus; assay: Antidiabetic activity in high fat diet/STZ induced diabetic Wistar rat model assessed as reduction in VLDL level at 3 to 30 mg/kg, IG pretreated with STZ for 21 days followed by compound treatment once daily for 21 days by spectrophotometric analysis; assay type: functional, organism-based; conditions: dose 3-30 mg/kg, time 21.0 day
[4] = system: Rattus norvegicus; assay: Antioxidant activity in IG dosed high fat diet/STZ induced diabetic Wistar rat model assessed as reversal of GSH reduction in kidney pretreated with STZ for 21 days followed by compound treatment once daily for 21 days by spectrophotometric analysis; assay type: functional, organism-based; conditions: dose 3-30 mg/kg, time 21.0 day
[5] = system: Rattus norvegicus; assay: Antioxidant activity in high fat diet/STZ induced diabetic Wistar rat model assessed as reduction in hazy swelling of columnar cells in tubules at 3 mg/kg, IG pretreated with STZ for 21 days followed by compound treatment once daily for 21 days by H and E staining based microscopic analysis; assay type: functional, organism-based; conditions: time 21.0 day
[6] = Acute toxicity in rat assessed as change in mucosal membranes at 300 to 1000 mg/kg, po measured after 6 hrs; assay type: organism-based; conditions: in vivo, dose 300-1000 mg/kg
[7] = Acute toxicity in rat assessed as sleep and sluggish effect at 300 to 1000 mg/kg, po measured after 6 hrs; assay type: organism-based; conditions: in vivo, dose 300-1000 mg/kg
[8] = system: Rattus norvegicus; assay: Antioxidant activity in high fat diet/STZ induced diabetic Wistar rat model assessed as reduction in glomeruli infiltration in stroma at 3 to 30 mg/kg, IG pretreated with STZ for 21 days followed by compound treatment once daily for 21 days by H and E staining based microscopic analysis; assay type: functional, organism-based; conditions: dose 3-30 mg/kg, time 21.0 day
[9] = Acute toxicity in rat assessed as diarrhoea at 300 to 1000 mg/kg, po measured after 6 hrs; assay type: organism-based; conditions: in vivo, dose 300-1000 mg/kg
[10] = system: Rattus norvegicus; assay: Antioxidant activity in high fat diet/STZ induced diabetic Wistar rat model assessed as recovery of pancreatic epithelial cell damage and acini architecture at 10 mg/kg, IG pretreated with STZ for 21 days followed by compound treatment once daily for 21 days by H and E staining based microscopic analysis; assay type: functional, organism-based; conditions: time 21.0 day
[11] = Acute toxicity in rat assessed as behavioural alterations at 300 to 1000 mg/kg, po measured after 6 hrs; assay type: organism-based; conditions: in vivo, dose 300-1000 mg/kg
[12] = Antioxidant activity assessed as DPPH scavenging activity incubated for 30 mins by absorbance based assay; assay type: functional; conditions: dose 25-100 µg/ml
[13] = Antioxidant activity assessed as H2O2 scavenging activity incubated for 10 mins by absorbance based assay; assay type: functional; conditions: dose 25-100 µg/ml
[14] = system: Rattus norvegicus; assay: Antioxidant activity in high fat diet/STZ induced diabetic Wistar rat model assessed as appearance of dilated central veins in hepatocytes at 30 mg/kg, IG pretreated with STZ for 21 days followed by compound treatment once daily for 21 days by H and E staining based microscopic analysis; assay type: functional, organism-based; conditions: time 21.0 day
[15] = system: Rattus norvegicus; assay: Antioxidant activity in high fat diet/STZ induced diabetic Wistar rat model assessed as reduction in mesangial cellularity and matrix at 10 to 30 mg/kg, IG pretreated with STZ for 21 days followed by compound treatment once daily for 21 days by H and E staining based microscopic analysis; assay type: functional, organism-based; conditions: dose 10-30 mg/kg, time 21.0 day
[16] = system: Rattus norvegicus; assay: Antioxidant activity in high fat diet/STZ induced diabetic Wistar rat model assessed as appearance of round-oval nuclei in hepatocytes at 30 mg/kg, IG pretreated with STZ for 21 days followed by compound treatment once daily for 21 days by H and E staining based microscopic analysis; assay type: functional, organism-based; conditions: time 21.0 day
[17] = Acute toxicity in rat assessed as change in salivation at 2000 mg/kg, po measured after 30 mins to 4 hrs; assay type: organism-based; conditions: in vivo, time 0.5-4 hrs
[18] = system: Rattus norvegicus; assay: Antioxidant activity in high fat diet/STZ induced diabetic Wistar rat model assessed as appearance of typical columnar cells in tubules at 30 mg/kg, IG pretreated with STZ for 21 days followed by compound treatment once daily for 21 days by H and E staining based microscopic analysis; assay type: functional, organism-based; conditions: time 21.0 day
[19] = system: Rattus norvegicus; assay: Antioxidant activity in high fat diet/STZ induced diabetic Wistar rat model assessed as healing of hepatocyte nucleus at 3 mg/kg, IG pretreated with STZ for 21 days followed by compound treatment once daily for 21 days by H and E staining based microscopic analysis; assay type: functional, organism-based; conditions: time 21.0 day
[20] = Acute toxicity in rat assessed as change in animal skin and fur at 2000 mg/kg, po measured after 30 mins to 4 hrs; assay type: organism-based; conditions: in vivo, time 0.5-4 hrs
[21] = Acute toxicity in rat assessed as change in eyes and mucous membranes at 2000 mg/kg, po measured after 30 mins to 4 hrs; assay type: organism-based; conditions: in vivo, time 0.5-4 hrs
[22] = system: Rattus norvegicus; assay: Antioxidant activity in IG dosed high fat diet/STZ induced diabetic Wistar rat model assessed as reversal of CAT reduction in liver pretreated with STZ for 21 days followed by compound treatment once daily for 21 days by spectrophotometric analysis; assay type: functional, organism-based; conditions: dose 3-30 mg/kg, time 21.0 day
[23] = system: Rattus norvegicus; assay: Antioxidant activity in IG dosed high fat diet/STZ induced diabetic Wistar rat model assessed as reversal of SOD reduction in liver pretreated with STZ for 21 days followed by compound treatment once daily for 21 days by spectrophotometric analysis; assay type: functional, organism-based; conditions: dose 3-30 mg/kg, time 21.0 day
[24] = system: Rattus norvegicus; assay: Antioxidant activity in high fat diet/STZ induced diabetic Wistar rat model assessed as repair of pancreatic epithelial cells with reduced fibrosis at 30 mg/kg, IG pretreated with STZ for 21 days followed by compound treatment once daily for 21 days by H and E staining based microscopic analysis; assay type: functional, organism-based; conditions: time 21.0 day
[25] = system: Rattus norvegicus; assay: Antidiabetic activity in high fat diet/STZ induced diabetic Wistar rat model assessed as reduction in LDL level at 3 to 30 mg/kg, IG pretreated with STZ for 21 days followed by compound treatment once daily for 21 days by spectrophotometric analysis; assay type: functional, organism-based; conditions: dose 3-30 mg/kg, time 21.0 day
[26] = system: Rattus norvegicus; assay: Antioxidant activity in high fat diet/STZ induced diabetic Wistar rat model assessed as healing of hepatocyte cytoplasm at 3 to 10 mg/kg, IG pretreated with STZ for 21 days followed by compound treatment once daily for 21 days by H and E staining based microscopic analysis; assay type: functional, organism-based; conditions: dose 3-10 mg/kg, time 21.0 day
[27] = Acute toxicity in rat assessed as change in animal eyes at 300 to 1000 mg/kg, po measured after 6 hrs; assay type: organism-based; conditions: in vivo, dose 300-1000 mg/kg
[28] = Antioxidant activity assessed as DPPH scavenging activity at 91.26 ug/ml incubated for 30 mins by absorbance based assay; assay type: functional; conditions: dose 91.26 µg/ml
[29] = system: Rattus norvegicus; assay: Antidiabetic activity in high fat diet/STZ induced diabetic Wistar rat model assessed as increase in fasting serum insulin at 3 to 30 mg/kg, IG pretreated with STZ for 21 days followed by compound treatment once daily for 21 days by chemiluminescence immunoassay; assay type: functional, organism-based; conditions: dose 3-30 mg/kg, time 21.0 day
[30] = system: Rattus norvegicus; assay: Antidiabetic activity in high fat diet/STZ induced diabetic Wistar rat model assessed as reduction in total cholesterol level at 3 to 30 mg/kg, IG pretreated with STZ for 21 days followed by compound treatment once daily for 21 days by spectrophotometric analysis; assay type: functional, organism-based; conditions: dose 3-30 mg/kg, time 21.0 day
[31] = system: Rattus norvegicus; assay: Antioxidant activity in IG dosed high fat diet/STZ induced diabetic Wistar rat model assessed as reversal of GPx reduction in liver pretreated with STZ for 21 days followed by compound treatment once daily for 21 days by spectrophotometric analysis; assay type: functional, organism-based; conditions: dose 3-30 mg/kg, time 21.0 day

SMILES: Nc1nc(NC2=NC(c3ccccc3)=CC(c3cccc([N+](=O)[O-])c3)O2)nc(N2CCOCC2)n1 (stereo unspecified)
- Activity [1]: Dose-Dependent Effect
- Activity [2]: Active
- Activity [3]: Active
- Activity [4]: Dose-Dependent Effect
- Activity [5]: inactive
- Activity [6]: Non-Toxic
- Activity [7]: Non-Toxic
- Activity [8]: Active
- Activity [9]: Non-Toxic
- Activity [10]: Active
- Activity [11]: Non-Toxic
- Activity [12]: Dose-Dependent Effect
- Activity [13]: Dose-Dependent Effect
- Activity [14]: Active
- Activity [15]: Active
- Activity [16]: Active
- Activity [17]: Non-Toxic
- Activity [18]: Active
- Activity [19]: Active
- Activity [20]: Non-Toxic
- Activity [21]: Non-Toxic
- Activity [22]: Dose-Dependent Effect
- Activity [23]: Dose-Dependent Effect
- Activity [24]: Active
- Activity [25]: Active
- Activity [26]: Active
- Activity [27]: Non-Toxic
- Activity [28]: Active
- Activity [29]: Active
- Activity [30]: Active
- Activity [31]: Dose-Dependent Effect
